Legend:
PI3K = PI3K (Homo sapiens, UniProt P42336); test: Fluorescence polarization assay for PI3K; assay type: biochemical; conditions: PI3Kα; read-out: PI3Kα IC50;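 also: PI3K kinase reaction on PIP2 with ATP, 30-60 min, product sensed by GST-GRP with red probe in fluorescence polarization (mP), controls without enzyme and at zero time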
prostate line LNCap = test: In vitro cell culture growth assay (MTS), LNCap; assay type: cell-based, human; conditions: Homo sapiens, 72 h, LNCap cells, three days after drug treatment
breast line MDA468 = test: In vitro cell culture growth assay (MTS), MDA468; assay type: cell-based, human; conditions: Homo sapiens, 72 h, MDA468 cells, three days after drug treatment
How it was run: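 Cells were plated and, one day later, exposed to inhibitors for three days; viable cell density was then measured by metabolic conversion of MTS dye, read as absorbance at 490 nm. Growth is expressed as percent of vehicle-treated control cells on the same plate.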

Sequence of PI3K (P42336 whole entry): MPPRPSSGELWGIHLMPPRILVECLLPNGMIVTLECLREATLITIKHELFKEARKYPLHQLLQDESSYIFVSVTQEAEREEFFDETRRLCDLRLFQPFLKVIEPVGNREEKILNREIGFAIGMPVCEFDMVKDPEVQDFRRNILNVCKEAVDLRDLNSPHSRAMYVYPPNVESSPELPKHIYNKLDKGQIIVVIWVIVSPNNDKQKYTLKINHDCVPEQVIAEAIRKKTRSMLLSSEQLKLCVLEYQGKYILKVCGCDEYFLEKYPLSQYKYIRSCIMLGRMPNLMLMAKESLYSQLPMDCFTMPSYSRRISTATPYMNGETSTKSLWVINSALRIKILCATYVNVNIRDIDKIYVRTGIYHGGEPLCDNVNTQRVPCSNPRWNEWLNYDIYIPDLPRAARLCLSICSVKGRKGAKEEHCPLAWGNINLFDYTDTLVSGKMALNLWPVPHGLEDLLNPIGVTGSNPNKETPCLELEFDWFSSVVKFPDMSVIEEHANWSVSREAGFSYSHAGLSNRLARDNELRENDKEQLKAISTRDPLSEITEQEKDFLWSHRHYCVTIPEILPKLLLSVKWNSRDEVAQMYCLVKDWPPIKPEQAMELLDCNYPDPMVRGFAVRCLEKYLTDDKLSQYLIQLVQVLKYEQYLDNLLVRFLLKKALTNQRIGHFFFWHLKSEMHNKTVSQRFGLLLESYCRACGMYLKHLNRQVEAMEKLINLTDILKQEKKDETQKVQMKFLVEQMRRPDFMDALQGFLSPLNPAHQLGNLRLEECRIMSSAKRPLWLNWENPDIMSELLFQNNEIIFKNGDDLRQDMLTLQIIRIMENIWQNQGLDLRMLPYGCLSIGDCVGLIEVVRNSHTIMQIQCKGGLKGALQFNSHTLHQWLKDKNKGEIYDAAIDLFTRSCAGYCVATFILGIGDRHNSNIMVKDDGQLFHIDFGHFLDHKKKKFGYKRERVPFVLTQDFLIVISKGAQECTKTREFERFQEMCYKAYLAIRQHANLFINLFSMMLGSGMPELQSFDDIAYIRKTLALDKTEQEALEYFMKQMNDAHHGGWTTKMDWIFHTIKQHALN
Sequence of PI3K (P27986 whole entry partner): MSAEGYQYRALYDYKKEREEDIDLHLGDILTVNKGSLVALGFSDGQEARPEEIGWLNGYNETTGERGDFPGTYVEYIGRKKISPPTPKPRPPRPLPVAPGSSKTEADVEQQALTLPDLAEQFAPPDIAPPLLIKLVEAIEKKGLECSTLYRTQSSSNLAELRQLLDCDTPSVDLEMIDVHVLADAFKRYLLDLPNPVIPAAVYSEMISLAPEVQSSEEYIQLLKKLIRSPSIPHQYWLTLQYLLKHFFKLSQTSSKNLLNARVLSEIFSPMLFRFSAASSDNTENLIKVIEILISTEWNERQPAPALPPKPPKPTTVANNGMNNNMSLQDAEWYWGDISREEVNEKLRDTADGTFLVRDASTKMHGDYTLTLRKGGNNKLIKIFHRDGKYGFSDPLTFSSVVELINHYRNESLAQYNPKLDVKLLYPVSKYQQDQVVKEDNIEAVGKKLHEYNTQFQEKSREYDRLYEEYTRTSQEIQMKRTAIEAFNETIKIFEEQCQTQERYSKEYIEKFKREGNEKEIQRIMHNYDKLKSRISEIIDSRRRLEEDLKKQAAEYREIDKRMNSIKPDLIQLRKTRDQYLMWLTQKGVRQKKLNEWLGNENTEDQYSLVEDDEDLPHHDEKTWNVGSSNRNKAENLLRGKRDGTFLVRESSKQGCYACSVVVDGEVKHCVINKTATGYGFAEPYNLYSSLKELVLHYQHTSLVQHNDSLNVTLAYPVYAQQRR

Row | IC50 (PI3K) | IC50 (prostate line LNCap; LNCaP) | Compound | IC50 (breast line MDA468) | IC50 (prostate line LNCap)
1 | 737 nM | 700 nM | CN1CCN(C(=O)N2CCC(n3ncc4c(N5CCOCC5)nc(-c5ccc6[nH]ccc6c5)nc43)CC2)CC1 [Compound 120] | 2000 nM | –
2 | 2130 nM | 600 nM | O=C(N1CCOCC1)N1CCC(n2ncc3c(N4CCOCC4)nc(-c4ccc5[nH]ccc5c4)nc32)CC1 [Compound 121] | 2000 nM | –
3 | 132 nM | 700 nM | S=C(Nc1cccnc1)N1CCC(n2ncc3c(N4CCOCC4)nc(-c4ccc5[nH]ccc5c4)nc32)CC1 [Compound 122, 4-[6-(1H-indol-5-yl)-4-morpholin-4-yl-1H-pyrazolo[3,4-d]pyrimidin-1-yl]-N-pyridin-3-ylpiperidine-1-carbothioamide] | 1300 nM | –
4 | 1300 nM | 450 nM | O=C(N1CCCC1)N1CCC(n2ncc3c(N4CCOCC4)nc(-c4ccc5[nH]ccc5c4)nc32)CC1 [Compound 123] | 1800 nM | –
5 | 843 nM | 830 nM | CN1CCC(n2ncc3c(N4CCOCC4)nc(-c4ccc5[nH]ccc5c4)nc32)CC1 [Compound 124] | 1700 nM | –
6 | 9750 nM | 4400 nM | c1cc2cc(-c3nc(N4CCOCC4)c4cnn(CCN5CCCCC5)c4n3)ccc2[nH]1 [Compound 125] | 7300 nM | –
7 | 60 nM | 3300 nM | Oc1cccc(-c2nc(N3CCOCC3)c3cnn(CCN4CCCCC4)c3n2)c1 [Compound 126] | 13000 nM | –
8 | 6520 nM | 5000 nM | CC(=O)Nc1ccc(-c2nc(N3CCOCC3)c3cnn(CCN4CCCCC4)c3n2)cc1 [Compound 127] | 18000 nM | –
9 | 311 nM | 300 nM | O=C(Nc1cccnc1)N1CCC(n2ncc3c(N4CCOCC4)nc(-c4ccc5[nH]ccc5c4)nc32)CC1 [Compound 132] | 1200 nM | –
10 | 131 nM | 2900 nM | O=C(Nc1ccc(-c2nc(N3CCOCC3)c3cnn(-c4ccccc4)c3n2)cc1)C1CCNCC1 [Compound 140] | 1300 nM | –
11 | 1490 nM | 320 nM | c1cc2cc(-c3nc(N4CCOCC4)c4cnn(C5CCC6(CC5)OCCO6)c4n3)ccc2[nH]1 [Compound 142] | 2200 nM | –
12 | 703 nM | 180 nM | O=C1CCC(n2ncc3c(N4CCOCC4)nc(-c4ccc5[nH]ccc5c4)nc32)CC1 [Compound 143, 4-[6-(1H-indol-5-yl)-4-morpholin-4-yl-1H-pyrazolo[3,4-d]pyrimidin-1-yl]cyclohexanone] | 1700 nM | –
13 | 1950 nM | 300 nM | CN(C)C1CCC(n2ncc3c(N4CCOCC4)nc(-c4ccc5[nH]ccc5c4)nc32)CC1 (stereo not drawn) [Compound 150] | 2100 nM | –
14 | 1270 nM | 520 nM | c1cc2cc(-c3nc(N4CCOCC4)c4cnn(C5CCC(N6CCCC6)CC5)c4n3)ccc2[nH]1 (stereo not drawn) [Compound 151] | 2300 nM | –
15 | 1130 nM | 600 nM | OC1CCC(n2ncc3c(N4CCOCC4)nc(-c4ccc5[nH]ccc5c4)nc32)CC1 (stereo not drawn) [Compound 152, 4-[6-(1H-indol-5-yl)-4-morpholin-4-yl-1H-pyrazolo[3,4-d]pyrimidin-1-yl]cyclohexanol] | 2300 nM | –
16 | 460 nM | 2000 nM | COc1ccc(NC2CCC(n3ncc4c(N5CCOCC5)nc(-c5ccc6[nH]ccc6c5)nc43)CC2)cc1 (stereo not drawn) [Compound 153] | 6500 nM | –
17 | 450 nM | 3300 nM | Clc1ccc(-c2nc(N3CCOCC3)c3cnn(C4CCN(Cc5ccccc5)CC4)c3n2)cn1 [Compound 156] | 35000 nM | –
18 | 1030 nM | 33000 nM | Clc1cc(-c2nc(N3CCOCC3)c3cnn(C4CCN(Cc5ccccc5)CC4)c3n2)ccn1 [Compound 157] | 60000 nM | –
19 | 6000 nM | 2800 nM | CN(C)CCCn1ncc2c(N3CCOCC3)nc(-c3ccc4[nH]ccc4c3)nc21 [Compound 160] | 15000 nM | –
20 | 3510 nM | 14000 nM | O=C1CCCN1CCn1ncc2c(N3CCOCC3)nc(-c3ccc4[nH]ccc4c3)nc21 [Compound 161] | 60000 nM | –
21 | 1850 nM | 33000 nM | c1cc2cc(-c3nc(N4CCOCC4)c4cnn(CCN5CCNCC5)c4n3)ccc2[nH]1 [Compound 162, 6-(1H-indol-5-yl)-4-morpholin-4-yl-1-(2-piperazin-1-ylethyl)-1H-pyrazolo[3,4-d]pyrimidine] | 60000 nM | –
22 | 230 nM | 5700 nM | O=C1CCCN1CCn1ncc2c(N3CCOCC3)nc(-c3cccc(O)c3)nc21 [Compound 164] | 20000 nM | –
23 | 176 nM | 3000 nM | Oc1cccc(-c2nc(N3CCOCC3)c3cnn(CCN4CCOCC4)c3n2)c1 [Compound 165] | 12000 nM | –
24 | 45 nM | 5800 nM | Oc1cccc(-c2nc(N3CCOCC3)c3cnn(CCN4CCNCC4)c3n2)c1 [Compound 166] | 15000 nM | –
25 | 890 nM | 3000 nM | CC(C)(C)OC(=O)N1CCC[C@@H](n2ncc3c(N4CCOCC4)nc(-c4ccc5[nH]ccc5c4)nc32)C1 [Compound 167] | 3100 nM | –
26 | 341 nM | 2000 nM | CC(C)(C)OC(=O)N1CCC[C@H](n2ncc3c(N4CCOCC4)nc(-c4ccc5[nH]ccc5c4)nc32)C1 [Compound 169] | 12000 nM | –
27 | 304 nM | 1000 nM | Clc1ccc(CN2CCC(n3ncc4c(N5CCOCC5)nc(-c5ccc6[nH]ccc6c5)nc43)CC2)cn1 [Compound 174, 1-{1-[(6-chloropyridin-3-yl)methyl]piperidin-4-yl}-6-(1H-indol-5-yl)-4-orpholin-4-yl-1H-pyrazolo[3,4-d]pyrimidine] | 2800 nM | –
28 | 462 nM | 1100 nM | Clc1ncccc1CN1CCC(n2ncc3c(N4CCOCC4)nc(-c4ccc5[nH]ccc5c4)nc32)CC1 [Compound 175] | 2000 nM | –

The next lines start with the compound.

Row | Compound | IC50 (PI3K) | IC50 (prostate line LNCap; LNCaP) | IC50 (breast line MDA468) | IC50 (prostate line LNCap)
29 | c1ccc(-n2ncc3c(N4CCOCC4)nc(-c4cc5ccccc5[nH]4)nc32)cc1 [Compound 111, 6-(1H-indol-2-yl)-4-morpholin-4-yl-1-phenyl-1H-pyrazolo[3,4-d]pyrimidine] | 1010 nM | 12000 nM | 23000 nM | –
30 | c1ccc(-n2ncc3c(N4CCOCC4)nc(-c4cc5ccccc5o4)nc32)cc1 [Compound 112] | 1910 nM | 15000 nM | 60000 nM | –
31 | c1ccc(-n2ncc3c(N4CCOCC4)nc(-c4cc5ccccc5s4)nc32)cc1 [Compound 113] | 2170 nM | 22000 nM | 23000 nM | –
32 | CN(C)c1ccc(-c2nc(N3CCOCC3)c3cnn(-c4ccccc4)c3n2)cc1 [Compound 114] | 393 nM | 15000 nM | 27000 nM | –
33 | CC(=O)Nc1cccc(-c2nc(N3CCOCC3)c3cnn(-c4ccccc4)c3n2)c1 [Compound 115] | 357 nM | 5200 nM | 9000 nM | –
34 | CS(=O)(=O)Nc1cccc(-c2nc(N3CCOCC3)c3cnn(-c4ccccc4)c3n2)c1 [Compound 116] | 111 nM | 20000 nM | 60000 nM | –
35 | c1ccc(-n2ncc3c(N4CCOCC4)nc(-c4ccc5occc5c4)nc32)cc1 [Compound 117] | 699 nM | 60000 nM | 60000 nM | –
36 | O=CNc1ccc(-c2nc(N3CCOCC3)c3cnn(-c4ccccc4)c3n2)cc1 [Compound 118] | 122 nM | 7000 nM | 20000 nM | –
37 | O=[N+]([O-])c1ccc(-c2nc(N3CCOCC3)c3cnn(-c4ccccc4)c3n2)cc1 [Compound 119] | 1160 nM | 60000 nM | 60000 nM | –
38 | CNc1ccc(-c2nc(N3CCOCC3)c3cnn(-c4ccccc4)c3n2)cc1 [Compound 128] | 384 nM | 4800 nM | 60000 nM | –
39 | c1ccc(-n2ncc3c(N4CCOCC4)nc(-c4ccc(CN5CCOCC5)cc4)nc32)cc1 [Compound 130] | 822 nM | 60000 nM | 60000 nM | –
40 | c1ccc(-n2ncc3c(N4CCOCC4)nc(-c4ccc(N5CCOCC5)nc4)nc32)cc1 [Compound 131] | 1100 nM | 60000 nM | 60000 nM | –
41 | O=C(CCN1CCCCC1)Nc1ccc(-c2nc(N3CCOCC3)c3cnn(-c4ccccc4)c3n2)cc1 [Compound 137] | 100 nM | 2800 nM | 1200 nM | –
42 | O=C(CCO)Nc1ccc(-c2nc(N3CCOCC3)c3cnn(-c4ccccc4)c3n2)cc1 [Compound 139] | 134 nM | 1500 nM | 60000 nM | –
43 | NCc1cccc(-c2nc(N3CCOCC3)c3cnn(-c4ccccc4)c3n2)c1 [Compound 144] | 627 nM | 2400 nM | 3800 nM | –
44 | CC(=O)NCc1cccc(-c2nc(N3CCOCC3)c3cnn(-c4ccccc4)c3n2)c1 [Compound 145] | 583 nM | 5500 nM | 21000 nM | –
45 | NCc1ccc(-c2nc(N3CCOCC3)c3cnn(-c4ccccc4)c3n2)cc1 [Compound 146] | 457 nM | 1700 nM | 4000 nM | –
46 | CC(=O)NCc1ccc(-c2nc(N3CCOCC3)c3cnn(-c4ccccc4)c3n2)cc1 [Compound 147] | 350 nM | 5600 nM | 22000 nM | –
47 | CC(=O)Nc1ccc(-c2nc(N3CCOCC3)c3cnn(-c4ccccc4)c3n2)cn1 [Compound 148] | 162 nM | 60000 nM | 60000 nM | –
48 | CN(C)CCCn1ncc2c(N3CCOCC3)nc(-c3cccc(O)c3)nc21 [Compound 163] | 60 nM | 1500 nM | 6000 nM | –
49 | c1cc2cc(-c3nc(N4CCOCC4)c4cnn(C5CCSCC5)c4n3)ccc2[nH]1 [Compound 171] | 552 nM | – | 2900 nM | 730 nM

Source: US20080234262A1 (Wyeth, priority 2007, published 2008)
